Experimental data as given in patent publication US20050009840A1 (SUGEN, INC., priority 2003, published 2005).
“And” between values parts separate entries of the source, which are not always exact repeats. Equal values may be shown once.

target: T1, Met kinase domain (GST fusion protein) (Homo sapiens, UniProt P08581); experiment: Met transphosphorylation assay (ELISA, poly(glu-tyr) substrate); type: biochemical; details: Table 2; read-out: Met IC50;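 further: Cell-free ELISA with plate-bound poly(Glu:Tyr 4:1) phosphorylated by GST-fused Met kinase domain plus ATP and Mn2+, phosphotyrosine detected by anti-phosphotyrosine antibody with HRP and ABTS read-out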
T1 construct: Purified GST fusion protein containing the Met kinase domain
T1 sequence (P08581 1078-1345 limits assumed): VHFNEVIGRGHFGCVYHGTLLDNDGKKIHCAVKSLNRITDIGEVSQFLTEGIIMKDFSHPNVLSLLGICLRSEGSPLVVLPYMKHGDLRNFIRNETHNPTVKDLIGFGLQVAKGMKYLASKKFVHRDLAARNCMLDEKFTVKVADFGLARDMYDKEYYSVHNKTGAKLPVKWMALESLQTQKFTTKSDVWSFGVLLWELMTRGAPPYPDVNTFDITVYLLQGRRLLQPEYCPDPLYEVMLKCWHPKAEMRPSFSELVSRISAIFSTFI

Point of comparison: `Nc1ncc(-c2cccc(C(=O)NCCN3CCOCC3)c2)cc1OCc1c(F)ccc(F)c1Cl` [Example I-237, 3-[6-Amino-5-(2-chloro-3,6-difluoro-benzyloxy)-pyridin-3-yl]-N-(2-morpholin-4-yl-ethyl)-benzamide], IC50 350 nM. Against it:
- Nc1ncc(-c2ccc(C(=O)N3CC[C@H](N)C3)cc2)cc1OCc1ccc(F)cc1Cl [Example I-206, {4-(6-Amino-5-(2-chloro-4-fluoro-benzyloxy)-pyridin-3-yl]-phenyl}-[(3S)-3-amino-pyrrolidin-1-yl]-methanone] — 5.2-fold higher, 1830 nM
- CN1CCN(C(=O)c2ccc(-c3cnc(N)c(OCc4ccc(F)cc4Cl)c3)cc2)CC1 [Example I-207, {4-(6-Amino-5-(2-chloro-4-fluoro-benzyloxy)-pyridin-3-yl]-phenyl}-(4-methyl-piperazin-1-yl)-methanone] — 14-fold higher, 5000 nM
- CC(=O)N1CCN(C(=O)c2ccc(-c3cnc(N)c(OCc4ccc(F)cc4Cl)c3)cc2)CC1 [Example I-208, 1-(4-{4-(6-Amino-5-(2-chloro-4-fluoro-benzyloxy)-pyridin-3-yl]-benzoyl}-piperazin-1-yl)-ethanone] — 15-fold higher, 5300 nM
- Nc1ncc(-c2ccc(C(=O)NCCN3CCOCC3)cc2)cc1OCc1ccc(F)cc1Cl [Example I-209, 4-[6-Amino-5-(2-chloro-4-fluoro-benzyloxy)-pyridin-3-yl]-N-(2-morpholin-4-yl-ethyl)-benzamide] — 31-fold higher, 11000 nM
- Nc1ncc(-c2ccc(C(=O)NCCCN3CCOCC3)cc2)cc1OCc1ccc(F)cc1Cl [Example I-210, 4-[6-Amino-5-(2-chloro-4-fluoro-benzyloxy)-pyridin-3-yl]-N-(3-morpholin-4-yl-propyl)-benzamide] — 17-fold higher, 5800 nM
- Nc1ncc(-c2ccc(C(=O)O)cc2)cc1OCc1c(F)ccc(F)c1Cl [Example I-211, 4 [6 Amino-5-(2-chloro-3,6-difluoro-benzyloxy)-pyridin-3-yl]-benzoic acid] — the same, 350 nM
- CN1CCN(C(=O)c2ccc(-c3cnc(N)c(OCc4c(F)ccc(F)c4Cl)c3)cc2)CC1 [Example I-212, {4-[6-Amino-5-(2-chloro-3,6-difluoro-benzyloxy)-pyridin-3-yl]-phenyl}-(4-methyl-piperazin-1-yl)-methanone] — 5.6-fold lower, 63 nM
- Nc1ncc(-c2ccc(C(=O)N3CCC(N)CC3)cc2)cc1OCc1c(F)ccc(F)c1Cl [Example I-214, {4-[6-Amino-5-(2-chloro-3,6-difluoro-benzyloxy)-pyridin-3-yl]-phenyl}-(4-amino-piperidin-1-yl)-methanone] — 3.5-fold lower, 100 nM
- CN(C)[C@H]1CCN(C(=O)c2ccc(-c3cnc(N)c(OCc4c(F)ccc(F)c4Cl)c3)cc2)C1 [Example I-217, {4-[6-Amino-5-(2-chloro-3,6-difluoro-benzyloxy)-pyridin-3-yl]-phenyl}-[(3S)-3-dimethylamino-pyrrolidin-1-yl]-methanone] — 2.9-fold lower, 120 nM
- Nc1ncc(-c2ccc(C(=O)N3CC[C@@H](N)C3)cc2)cc1OCc1c(F)ccc(F)c1Cl [Example I-218, {4-[6-Amino-5-(2-chloro-3,6-difluoro-benzyloxy)-pyridin-3-yl]-phenyl}-[(3R)-3-amino-pyrrolidin-1-yl]-methanone] — 6.6-fold lower, 53 nM
- Nc1ncc(-c2ccc(C(=O)N3CC[C@H](N)C3)cc2)cc1OCc1c(F)ccc(F)c1Cl [Example I-219, {4-[6-Amino-5-(2-chloro-3,6-difluoro-benzyloxy)-pyridin-3-yl]-phenyl}-[(3S)-3-amino-pyrrolidin-1-yl]-methanone] — 3.7-fold lower, 95 nM
- CN1CCC(NC(=O)c2ccc(-c3cnc(N)c(OCc4c(F)ccc(F)c4Cl)c3)cc2)CC1 [Example I-220, 4-[6-Amino-5-(2-chloro-3,6-difluoro-benzyloxy)-pyridin-3-yl]-N-(1-methyl-piperidin-4-yl)-benzamide] — 3.2-fold lower, 110 nM
- Nc1ncc(-c2ccc(C(=O)NCCN3CCCC3)cc2)cc1OCc1c(F)ccc(F)c1Cl [Example I-221] — 1.9-fold lower, 180 nM
- Nc1ncc(-c2ccc(C(=O)NCCCN3CCCC3)cc2)cc1OCc1c(F)ccc(F)c1Cl [Example I-222] — 1.8-fold lower, 190 nM
- Nc1ncc(-c2ccc(C(=O)NCCN3CCOCC3)cc2)cc1OCc1c(F)ccc(F)c1Cl [Example I-223] — 2.1-fold lower, 165 nM
- Nc1ncc(-c2ccc(C(=O)NCCCN3CCOCC3)cc2)cc1OCc1c(F)ccc(F)c1Cl [Example I-224, 4-[6-Amino-5-(2-chloro-3,6-difluoro-benzyloxy)-pyridin-3-yl]-N-(3-morpholin-4-yl-propyl)-benzamide] — within 1.5-fold, 280 nM
- CN1CCN(C(=O)c2cccc(-c3cnc(N)c(OCc4c(F)ccc(F)c4Cl)c3)c2)CC1 [Example I-226, {3-[6-Amino-5-(2-chloro-3,6-difluoro-benzyloxy)-pyridin-3-yl]-phenyl}-(4-methyl-piperazin-1-yl)-methanone] — 5.1-fold lower, 68 nM
- Nc1ncc(-c2cccc(C(=O)N3CCC(N)CC3)c2)cc1OCc1c(F)ccc(F)c1Cl [Example I-228, {3-[6-Amino-5-(2-chloro-3,6-difluoro-benzyloxy)-pyridin-3-yl]-phenyl}-(4-amino-piperidin-1-yl)-methanone] — 1.5-fold lower, 230 nM
- CN(C)[C@H]1CCN(C(=O)c2cccc(-c3cnc(N)c(OCc4c(F)ccc(F)c4Cl)c3)c2)C1 [Example I-231, {-[6-Amino-5-(2-chloro-3,6-difluoro-benzyloxy)-pyridin-3-yl]-phenyl}-[(3S)-3-dimethylamino-pyrrolidin-1-yl]-methanone] — 2.7-fold lower, 128 nM
- Nc1ncc(-c2cccc(C(=O)N3CC[C@@H](N)C3)c2)cc1OCc1c(F)ccc(F)c1Cl [Example I-232, {3-[6-Amino-5-(2-chloro-3,6-difluoro-benzyloxy)-pyridin-3-yl]-phenyl}-[(3R)-3-amino-pyrrolidin-1-yl]-methanone] — 2.9-fold lower, 120 nM
- Nc1ncc(-c2cccc(C(=O)N3CC[C@H](N)C3)c2)cc1OCc1c(F)ccc(F)c1Cl [Example I-233, {3-[6-Amino-5-(2-chloro-3,6-difluoro-benzyloxy)-pyridin-3-yl]-phenyl}-[(3S)-amino-pyrrolidin-1-yl]-methyanone] — 2.9-fold lower, 120 nM
- Nc1ncc(-c2cccc(C(=O)NCCN3CCCC3)c2)cc1OCc1c(F)ccc(F)c1Cl [Example I-235, 3-[6-Amino-5-(2-chloro-3,6-difluoro-benzyloxy)-pyridin-3-yl]-N-(2-pyrrolidin-1-yl-ethyl)-benzamide] — within 1.5-fold, 260 nM
- Nc1ncc(-c2cccc(C(=O)NCCCN3CCCC3)c2)cc1OCc1c(F)ccc(F)c1Cl [Example I-236, 3-[6-Amino-5-(2-chloro-3,6-difluoro-benzyloxy)-pyridin-3-yl]-N-(3-pyrrolidin-1-yl-propyl)-benzamide] — within 1.5-fold, 280 nM
- Nc1ncc(-c2cccc(C(=O)NCCCN3CCOCC3)c2)cc1OCc1c(F)ccc(F)c1Cl [Example I-238, 3-[6-Amino-5-(2-chloro-3,6-difluoro-benzyloxy)-pyridin-3-yl]-N-(3-morpholin-4-yl-propyl)-benzamide] — the same, 350 nM
- CC(=O)N1CCN(CCNC(=O)c2cccc(-c3cnc(N)c(OCc4c(F)ccc(F)c4Cl)c3)c2)CC1 [Example I-239, N-[2-(4-Acetyl-piperazin-1-yl)-ethyl]-3-[6-amino-5-(2-chloro-3,6-difluoro-benzyloxy)-pyridin-3-yl]-benzamide] — 3.5-fold lower, 100 nM
- Nc1ncc(-c2ccc(N3CCCS3(=O)=O)cc2)cc1OCc1c(F)ccc(F)c1Cl [Example I-240, 3-(2-Chloro-3,6-difluoro-benzyloxy)-5-[4-(1,1-dioxo-1λ^6-isothiazolidin-1-yl)-phenyl]-pyridin-2-ylamine] — 3.5-fold lower, 100 nM
- Nc1ncc(-c2ccc(N3CCCS3(=O)=O)cc2)cc1OCc1c(Cl)cccc1Cl [Example I-241] — 5.2-fold lower, 67 nM
- Nc1ncc(-c2ccc(N3CCCS3(=O)=O)cc2)cc1OCc1c(F)cccc1C(F)(F)F [Example I-242, 5-[4-(1,1-Dioxo-1λ^6-isothiazolidin-2-yl)-phenyl]-3-(2-fluoro-6-trifluoromethyl-benzyloxy)-pyridin-2-ylamine] — 2.5-fold lower, 140 nM
- CCN(CC)CCS(=O)(=O)Nc1ccc(-c2cnc(N)c(OCc3c(F)ccc(F)c3Cl)c2)cc1 [Example I-243, 2-diethylamino-ethanesulfonic acid {4-[6-amino-5-(2-chloro-3,6-difluoro-benzyloxy)-pyridin-3-yl]-phenyl)amide] — 8.1-fold lower, 43 nM
- Nc1ncc(-c2ccc(NS(=O)(=O)CCNC3CC3)cc2)cc1OCc1c(F)ccc(F)c1Cl [Example I-244, 2-Cydopropylamino-ethanesulfonic acid {4-[6-amino-5-(2-chloro-3,6-difluoro-benzyloxy)-pyridin-3-yl]-phenyl}-amide] — 4.3-fold lower, 81 nM
- Nc1ncc(-c2ccc(NS(=O)(=O)CCN3CCCC3)cc2)cc1OCc1c(F)ccc(F)c1Cl [Example I-245] — 4.3-fold lower, 82 nM
- Nc1ncc(-c2ccc(NS(=O)(=O)CCN3CCC(O)CC3)cc2)cc1OCc1c(F)ccc(F)c1Cl [Example I-246, 2-(4-Hydoxy-piperidin-1-yl)-ethanesulfonic acid {4-[6-amino-5-(2-chloro-3,6-difluoro-benzyloxy)-pyridin-3-yl]-phenyl}-amide] — 2.6-fold lower, 135 nM
- Nc1ncc(-c2ccc(NS(=O)(=O)CCN3CCOCC3)cc2)cc1OCc1c(F)ccc(F)c1Cl [Example I-247, 2-Morpholin-4-yl-ethanesulfonic acid {4-[6-amino-5-(2-chloro-3,6-difluoro-benzyloxy)-pyridin-3-yl]-phenyl}-amide] — within 1.5-fold, 310 nM
- Nc1ncc(-c2ccc(NS(=O)(=O)CCN3CCCCC3)cc2)cc1OCc1c(F)ccc(F)c1Cl [Example I-248, 2-Pipendin-1-yl-ethanesulfonic acid {4-[6-amino-5-(2-chloro-3,6-difluoro-benzyloxy)-pyridin-3-yl]-phenyl}-amide] — 3.1-fold lower, 114 nM
- CN(C)CCS(=O)(=O)Nc1ccc(-c2cnc(N)c(OCc3c(F)ccc(F)c3Cl)c2)cc1 [Example I-249, 2-Dimethylamino-ethanesulfonic acid {4-[6-amino-5-(2-chloro-3,6-difluoro-benzyloxy)-pyridin-3-yl]-phenyl}-amide] — 3.6-fold lower, 98 nM

For `Nc1ncc(-c2cccc(C(=O)O)c2)cc1OCc1c(F)ccc(F)c1Cl` [Example I-225, 3-[6-Amino-5-(2-chloro-3,6-difluoro-benzyloxy)-pyridin-3-yl]-benzoic acid], the IC50 was 3700 nM and 600 nM.
